Experimental data from ChEMBL document CHEMBL3352817, “Syntheses of coumarin-tacrine hybrids as dual-site acetylcholinesterase inhibitors and their activity against butylcholinesterase, Aβ aggregation, and β-secretase” (Bioorg Med Chem, 2014).

Key:
[1] = molecular target: Amyloid-beta precursor protein (Homo sapiens, UniProt P05067)
Description: Inhibition of self mediated amyloid beta (1 to 42) aggregation (unknown origin) after 10 hrs by ThT-based fluorescence assay

Beta-secretase 1 = Beta-secretase 1 (Homo sapiens, UniProt P56817)
Acetylcholinesterase = Acetylcholinesterase (Homo sapiens, UniProt P22303)
Description: Inhibition of human AChE assessed as acetylthiocholine hydrolysis

Cholinesterase = Cholinesterase (Homo sapiens, UniProt P06276)
Sequence of Cholinesterase (P06276 whole entry): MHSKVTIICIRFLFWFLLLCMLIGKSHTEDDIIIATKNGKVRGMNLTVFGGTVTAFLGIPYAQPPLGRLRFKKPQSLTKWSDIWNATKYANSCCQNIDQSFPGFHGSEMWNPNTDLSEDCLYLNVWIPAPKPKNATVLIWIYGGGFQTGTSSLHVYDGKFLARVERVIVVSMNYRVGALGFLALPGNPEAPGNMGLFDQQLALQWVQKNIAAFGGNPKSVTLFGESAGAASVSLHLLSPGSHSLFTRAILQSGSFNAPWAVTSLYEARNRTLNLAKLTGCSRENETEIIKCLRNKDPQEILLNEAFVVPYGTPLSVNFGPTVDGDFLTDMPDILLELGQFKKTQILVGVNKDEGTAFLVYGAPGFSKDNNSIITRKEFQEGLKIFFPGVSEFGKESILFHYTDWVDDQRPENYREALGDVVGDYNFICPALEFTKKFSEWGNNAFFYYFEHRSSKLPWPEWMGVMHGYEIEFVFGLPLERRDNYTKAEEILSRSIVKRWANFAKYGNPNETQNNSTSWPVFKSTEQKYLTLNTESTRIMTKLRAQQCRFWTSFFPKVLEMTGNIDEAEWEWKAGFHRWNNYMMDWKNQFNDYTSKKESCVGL
Description: Inhibition of human BChE assessed as acetylthiocholine hydrolysis

Sequence of Amyloid-beta precursor protein (P05067 whole entry): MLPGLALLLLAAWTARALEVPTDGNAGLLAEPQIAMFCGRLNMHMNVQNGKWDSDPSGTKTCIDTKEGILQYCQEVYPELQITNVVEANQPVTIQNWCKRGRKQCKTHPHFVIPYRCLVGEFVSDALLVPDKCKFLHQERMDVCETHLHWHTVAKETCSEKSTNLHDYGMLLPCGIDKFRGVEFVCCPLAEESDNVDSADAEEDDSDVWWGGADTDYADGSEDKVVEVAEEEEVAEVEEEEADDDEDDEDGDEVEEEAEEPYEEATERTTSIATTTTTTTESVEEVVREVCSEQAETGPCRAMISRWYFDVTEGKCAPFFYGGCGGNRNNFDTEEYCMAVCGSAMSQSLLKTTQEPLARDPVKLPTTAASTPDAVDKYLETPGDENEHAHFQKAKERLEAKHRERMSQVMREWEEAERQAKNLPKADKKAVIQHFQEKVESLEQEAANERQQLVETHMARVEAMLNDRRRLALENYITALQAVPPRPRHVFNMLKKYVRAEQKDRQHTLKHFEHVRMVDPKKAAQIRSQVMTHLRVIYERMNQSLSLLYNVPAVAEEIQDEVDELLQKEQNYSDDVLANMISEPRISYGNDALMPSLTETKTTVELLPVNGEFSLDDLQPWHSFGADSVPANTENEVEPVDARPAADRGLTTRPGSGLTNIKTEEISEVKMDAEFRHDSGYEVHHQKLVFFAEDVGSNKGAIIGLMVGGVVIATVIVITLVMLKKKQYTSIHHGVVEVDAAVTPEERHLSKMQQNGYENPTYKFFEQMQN
Sequence of Beta-secretase 1 (P56817 whole entry): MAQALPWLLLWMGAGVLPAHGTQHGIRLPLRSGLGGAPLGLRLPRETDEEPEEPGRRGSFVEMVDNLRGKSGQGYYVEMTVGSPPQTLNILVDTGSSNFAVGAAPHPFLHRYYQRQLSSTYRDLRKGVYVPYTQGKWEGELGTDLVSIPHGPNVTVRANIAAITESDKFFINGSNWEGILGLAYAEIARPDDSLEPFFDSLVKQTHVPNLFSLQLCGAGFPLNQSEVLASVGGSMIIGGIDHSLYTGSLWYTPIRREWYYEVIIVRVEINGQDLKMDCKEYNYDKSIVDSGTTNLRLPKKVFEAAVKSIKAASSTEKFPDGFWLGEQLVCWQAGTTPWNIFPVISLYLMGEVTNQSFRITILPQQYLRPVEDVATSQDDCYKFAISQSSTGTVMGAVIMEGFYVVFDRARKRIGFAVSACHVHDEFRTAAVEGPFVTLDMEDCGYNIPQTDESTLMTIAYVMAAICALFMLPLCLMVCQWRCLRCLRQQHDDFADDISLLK
Sequence of Acetylcholinesterase (P22303 whole entry): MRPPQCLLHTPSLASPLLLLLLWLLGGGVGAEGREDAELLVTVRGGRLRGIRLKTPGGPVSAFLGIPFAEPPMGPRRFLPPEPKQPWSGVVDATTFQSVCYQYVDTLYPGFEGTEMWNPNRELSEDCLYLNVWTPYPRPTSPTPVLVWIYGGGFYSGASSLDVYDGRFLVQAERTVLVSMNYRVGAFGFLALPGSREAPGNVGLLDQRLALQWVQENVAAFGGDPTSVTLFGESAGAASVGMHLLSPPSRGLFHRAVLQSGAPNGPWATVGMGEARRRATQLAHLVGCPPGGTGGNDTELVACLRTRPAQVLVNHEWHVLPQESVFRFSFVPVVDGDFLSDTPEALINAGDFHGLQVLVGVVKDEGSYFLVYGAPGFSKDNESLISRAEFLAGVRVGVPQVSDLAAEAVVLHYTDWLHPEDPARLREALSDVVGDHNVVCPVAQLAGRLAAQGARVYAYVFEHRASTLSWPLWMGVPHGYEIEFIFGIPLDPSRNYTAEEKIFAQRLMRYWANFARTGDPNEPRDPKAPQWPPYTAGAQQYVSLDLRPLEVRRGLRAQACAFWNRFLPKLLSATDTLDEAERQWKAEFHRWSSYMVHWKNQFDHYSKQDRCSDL

`Cc1ccc2oc(=O)c(C(=O)NCCCCCCCNc3c4c(nc5ccccc35)CCCC4)cc2c1` gave an IC50 [1] of 6.1 µM, an IC50 (Beta-secretase 1) of 42.8 µM and a Ki (Acetylcholinesterase) of 0.0661 µM. For the same compound, the Ki (Cholinesterase) was 0.0509 µM.

`COc1ccc2cc(C(=O)NCCCCCCNc3c4c(nc5ccccc35)CCCC4)c(=O)oc2c1` showed a Ki (Acetylcholinesterase) of 0.0309 µM and a Ki (Cholinesterase) of 0.0202 µM.

`Cc1ccc2oc(=O)c(C(=O)NCCCCCNc3c4c(nc5ccccc35)CCCC4)cc2c1` was tested, and the Ki (Acetylcholinesterase) was 0.0358 µM and the Ki (Cholinesterase) was 0.0324 µM.

`O=C(NCCCCCCCNc1c2c(nc3ccccc13)CCCC2)c1cc2cc(OC(F)(F)F)ccc2oc1=O` gave a Ki (Acetylcholinesterase) of 0.0782 µM and a Ki (Cholinesterase) of 0.04 µM.

For `O=C(NCCCCCCCNc1c2c(nc3ccccc13)CCCC2)c1cc2ccccc2oc1=O`, the Ki (Acetylcholinesterase) was 0.0422 µM and the Ki (Cholinesterase) was 0.02 µM.

With `O=C(NCCCCCNc1c2c(nc3ccccc13)CCCC2)c1cc2cc(OC(F)(F)F)ccc2oc1=O` the Ki (Acetylcholinesterase) was 0.0761 µM and the Ki (Cholinesterase) was 0.0325 µM.

`O=C(NCCCCCCNc1c2c(nc3ccccc13)CCCC2)c1cc2cc(OC(F)(F)F)ccc2oc1=O` was tested, and the IC50 [1] was 24.2 µM, the IC50 (Beta-secretase 1) was 22.6 µM and the Ki (Acetylcholinesterase) was 0.0596 µM. The Ki (Cholinesterase) was 0.0175 µM.

Work on `COc1ccc2cc(C(=O)NCCCCCNc3c4c(nc5ccccc35)CCCC4)c(=O)oc2c1` yielded a Ki (Acetylcholinesterase) of 0.0443 µM and a Ki (Cholinesterase) of 0.0298 µM.

`COc1cc2cc(C(=O)NCCCCCNc3c4c(nc5ccccc35)CCCC4)c(=O)oc2cc1OC` was tested, and the Ki (Acetylcholinesterase) was 0.07 µM and the Ki (Cholinesterase) was 0.0081 µM.

`O=C(NCCCCCNc1c2c(nc3ccccc13)CCCC2)c1cc2ccccc2oc1=O` was tested, and the IC50 [1] was > 100 µM, the IC50 (Beta-secretase 1) was 40.1 µM and the Ki (Acetylcholinesterase) was 0.0344 µM. The Ki (Cholinesterase) was 0.0317 µM.

`O=C(NCCCCCCNc1c2c(nc3ccccc13)CCCC2)c1cc2ccccc2oc1=O` was tested, and the IC50 [1] was > 100 µM, the IC50 (Beta-secretase 1) was 17.2 µM and the Ki (Acetylcholinesterase) was 0.0167 µM. It also gave a Ki (Cholinesterase) of 0.0161 µM.

`COc1cc2cc(C(=O)NCCCCCCNc3c4c(nc5ccccc35)CCCC4)c(=O)oc2cc1OC` showed a Ki (Acetylcholinesterase) of 0.0561 µM and a Ki (Cholinesterase) of 0.0312 µM.

`COc1ccc2oc(=O)c(C(=O)NCCCCCNc3c4c(nc5ccccc35)CCCC4)cc2c1` gave a Ki (Acetylcholinesterase) of 0.0394 µM and a Ki (Cholinesterase) of 0.034 µM.

In the case of `Cc1ccc2oc(=O)c(C(=O)NCCCCCCNc3c4c(nc5ccccc35)CCCC4)cc2c1`, the IC50 [1] is reported as 5 µM, the IC50 (Beta-secretase 1) is reported as > 100 µM and the Ki (Acetylcholinesterase) is reported as 0.0301 µM. It also gave a Ki (Cholinesterase) of 0.0232 µM.

`COc1ccc2oc(=O)c(C(=O)NCCCCCCCNc3c4c(nc5ccccc35)CCCC4)cc2c1` was tested, and the IC50 [1] was 13.4 µM, the IC50 (Beta-secretase 1) was 20.2 µM and the Ki (Acetylcholinesterase) was 0.0507 µM. It also gave a Ki (Cholinesterase) of 0.0345 µM.

With `COc1ccc2oc(=O)c(C(=O)NCCCCCCNc3c4c(nc5ccccc35)CCCC4)cc2c1` the Ki (Acetylcholinesterase) was 0.0243 µM and the Ki (Cholinesterase) was 0.0237 µM.

`COc1cc2cc(C(=O)NCCCCCCCNc3c4c(nc5ccccc35)CCCC4)c(=O)oc2cc1OC` gave a Ki (Acetylcholinesterase) of 0.0911 µM and a Ki (Cholinesterase) of 0.0375 µM.

`COc1ccc2cc(C(=O)NCCCCCCCNc3c4c(nc5ccccc35)CCCC4)c(=O)oc2c1` showed a Ki (Acetylcholinesterase) of 0.0552 µM and a Ki (Cholinesterase) of 0.035 µM.
